Test results: patent US20140073801A1, “PYRROLIDINE DERIVATIVES AS SELECTIVE GLYCOSIDASE INHIBITORS AND USES THEREOF” (Summit Corporation Plc, priority 2011, published 2014)

Tests used:
Type in all cases: biochemical
[1] = molecular target: T1, human OGA (Homo sapiens, UniProt O60502); assay: Determination of IC50 values for inhibition of human OGA
T1 construct: made in house
T1 sequence (O60502 1-916): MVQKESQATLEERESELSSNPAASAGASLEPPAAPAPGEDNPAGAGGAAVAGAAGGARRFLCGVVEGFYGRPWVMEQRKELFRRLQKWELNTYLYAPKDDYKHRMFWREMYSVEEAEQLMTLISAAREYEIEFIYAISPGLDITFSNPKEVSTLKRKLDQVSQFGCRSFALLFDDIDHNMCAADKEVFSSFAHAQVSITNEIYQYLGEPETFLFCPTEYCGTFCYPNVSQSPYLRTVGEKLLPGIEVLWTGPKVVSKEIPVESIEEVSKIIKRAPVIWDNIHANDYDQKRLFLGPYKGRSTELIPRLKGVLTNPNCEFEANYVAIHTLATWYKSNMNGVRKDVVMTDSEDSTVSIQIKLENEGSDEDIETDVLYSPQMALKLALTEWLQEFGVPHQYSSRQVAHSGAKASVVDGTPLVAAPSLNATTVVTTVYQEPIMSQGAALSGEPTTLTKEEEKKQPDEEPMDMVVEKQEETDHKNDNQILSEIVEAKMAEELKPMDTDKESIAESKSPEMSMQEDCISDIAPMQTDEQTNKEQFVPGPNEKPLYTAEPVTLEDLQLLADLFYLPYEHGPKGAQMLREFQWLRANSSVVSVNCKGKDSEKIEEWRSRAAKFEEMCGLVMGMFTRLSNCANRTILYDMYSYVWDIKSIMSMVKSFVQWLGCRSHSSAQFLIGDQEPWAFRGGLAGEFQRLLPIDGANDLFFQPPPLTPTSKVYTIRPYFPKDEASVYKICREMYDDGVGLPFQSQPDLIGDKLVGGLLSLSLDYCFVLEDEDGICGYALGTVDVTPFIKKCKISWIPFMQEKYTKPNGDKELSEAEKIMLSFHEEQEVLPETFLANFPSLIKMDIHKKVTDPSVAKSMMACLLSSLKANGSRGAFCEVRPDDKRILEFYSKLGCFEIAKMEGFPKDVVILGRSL
Experimental: Inhibitors identified from the screen described in Example 1 were evaluated for IC50 using a procedure adapted from Biochem. J. 2009, 420, 221-227. IC50 determination was carried out using a range of inhibitor concentrations from 300 μM to 0.003 μM or 100 μM to 0.001 μM. IC50 values were calculated using XLFit 4.

[2] = system: human β-hexosaminidase [human placenta] (HexA/B); assay: Determination of IC50 values for inhibition of human β-hexosaminidase; details: ratio
Experimental: (§1) Inhibitors identified from the screen described in Example 1 were evaluated for IC50 against human β-hexosaminidase [human placenta, Sigma-Aldrich] using a range of inhibitor concentrations from 300 μM to 0.003 μM or 100 μM to 0.001 μM and the following reaction conditions:
(§2) Reactions were carried out at room temperature for thirty minutes and then quenched through the addition of 150 μl 0.5M Na2CO3. Fluorescence readings were taken at excitation wavelength 360 nm and emission wavelength 450 nm. IC50 values were calculated using XLFit 4. The selectivity ratio for inhibition of human O-GlcNAcase over human β-hexosaminidase is defined here as:
(§3) IC50(human β-hexosaminidase)/IC50(Human OGA)

[3] = molecular target: T2, human β-hexosaminidase [human placenta] (HexA/B); assay: as above; details: human β-hexosaminidase, human placenta; room temperature, thirty minutes
T2 construct: other: human β-hexosaminidase, human placenta; room temperature, thirty minutes
Experimental: as §1, §2, §3

SMILES | IC50 [1] [nM] | Selectivity: IC50(human β-hexosaminidase)/IC50(Human OGA) [2] | IC50 [3] [µM]
CNC(=O)[C@H]1N[C@@H](CO)[C@@H](O)[C@@H]1O [Compound A042, (2S,3R,4R,5S)-3,4-dihydroxy-5-(hydroxymethyl)-N-methylpyrrolidine-2-carboxamide] | 2800 | 0.89 | 2.5
CCCNC(=O)C[C@@H]1[C@H](O)[C@H](O)[C@@H](CO)N1CCCCCCCCCO [Compound A005, 2-((2R,3S,4R,5R)-3,4-dihydroxy-5-(hydroxymethyl)-1-(9-hydroxynonyl)pyrrolidin-2-yl)-N-propylacetamide] | 144 | >2142 | > 300
CCNC(=O)C[C@@H]1[C@@H](O)[C@H](O)[C@@H](CO)N1CCCc1ccc(S(=O)(=O)NCC)cc1 [Compound A070, N-ethyl-2-((2R,3R,4R,5R)-1-(3-(4-(N-ethylsulfamoyl)phenyl)propyl)-3,4-dihydroxy-5-(hydroxymethyl)pyrrolidin-2-yl)acetamide] | 7.5 | 22133 | 166
CC(=O)NC[C@H]1N[C@H](CO)[C@@H](O)[C@H]1O [Compound A033, N-(((2R,3S,4R,5R)-3,4-dihydroxy-5-(hydroxymethyl)pyrrolidin-2-yl)methyl)acetamide] | 1680 | >178.57 | > 300
CC(C)NC(=O)C[C@H]1N[C@H](CO)[C@@H](O)[C@H]1O [Compound A013, 2-((2R,3S,4R,5R)-3,4-dihydroxy-5-(hydroxymethyl)pyrrolidin-2-yl)-N-isopropylacetamide] | 130000 | >2 | > 300
CNC(=O)C[C@@H]1[C@H](O)[C@H](O)[C@@H](CO)N1CCCCc1ccccc1 [Compound A020, 2-((2R,3S,4R,5R)-3,4-dihydroxy-5-(hydroxymethyl)-1-(4-phenylbutyl)pyrrolidin-2-yl)-N-methylacetamide] | 23 | >13215 | > 300
CNC(=O)C[C@@H]1[C@H](O)[C@H](O)[C@@H](CO)N1CCOc1ccccc1 [Compound A037, 2-((2R,3S,4R,5R)-3,4-dihydroxy-5-(hydroxymethyl)-1-(2-phenoxyethyl)pyrrolidin-2-yl)-N-methylacetamide] | 228 | >1315 | > 300
CCNC(=O)C[C@@H]1[C@@H](O)[C@H](O)[C@@H](CO)N1CCCc1ccc(Sc2ccccc2)cc1 [Compound A071, 2-((2R,3R,4R,5R)-3,4-dihydroxy-5-(hydroxymethyl)-1-(3-(4-(phenylthio)phenyl)propyl)pyrrolidin-2-yl)-N-ethylacetamide] | 7 | >42857 | > 300
CCCCCCN1[C@H](CC(=O)NC)[C@@H](O)[C@H](O)[C@@H]1CO [Compound A056, 2-((2R,3R,4R,5S)-1-hexyl-3,4-dihydroxy-5-(hydroxymethyl)pyrrolidin-2-yl)-N-methylacetamide] | 580 | 0.02 | 0.0107
CNC(=O)C[C@H]1N[C@H](CO)[C@@H](O)[C@@H]1O [Compound A044, 2-((2R,3R,4R,5R)-3,4-dihydroxy-5-(hydroxymethyl)pyrrolidin-2-yl)-N-methylacetamide] | 27.9 | 4.66 | 0.13
CCCCCCN1[C@H](CC(=O)NCC(C)C)[C@H](O)[C@H](O)[C@H]1CO [Compound A027, 2-((2R,3S,4R,5R)-1-hexyl-3,4-dihydroxy-5-(hydroxymethyl)pyrrolidin-2-yl)-N-isobutylacetamide] | 11600 | >25.95 | > 300
CCNC(=O)C[C@@H]1[C@@H](O)[C@H](O)[C@@H](CO)N1C(=O)CCc1ccccc1 [Compound A069, 2-((2R,3R,4R,5R)-3,4-dihydroxy-5-(hydroxymethyl)-1-(3-phenylpropanoyl)pyrrolidin-2-yl)-N-ethylacetamide] | 224000 | >1.34 | > 300
CCNC(=O)C[C@@H]1[C@@H](O)[C@H](O)[C@@H](CO)N1CCCc1ccccc1 [Compound A061, 2-((2R,3R,4R,5R)-3,4-dihydroxy-5-(hydroxymethyl)-1-(3-phenylpropyl)pyrrolidin-2-yl)-N-ethylacetamide] | 69.3 | >4329 | > 300
CNC(=O)C[C@@H]1[C@H](O)[C@H](O)[C@@H](CO)N1CCCCCCO [Compound A040, 2-((2R,3S,4R,5R)-3,4-dihydroxy-1-(6-hydroxyhexyl)-5-(hydroxymethyl)pyrrolidin-2-yl)-N-methylacetamide] | 45 | 3355 | 151
CCCCCCN1[C@H](CC(=O)NCCO)[C@H](O)[C@H](O)[C@H]1CO [Compound A028, 2-((2R,3S,4R,5R)-1-hexyl-3,4-dihydroxy-5-(hydroxymethyl)pyrrolidin-2-yl)-N-(2-hydroxyethyl)acetamide] | 215000 | >1.39 | ≥ 300
CCCCCCN1[C@H](CC(=O)NC2CC2)[C@H](O)[C@H](O)[C@H]1CO [Compound A049, N-cyclopropyl-2-((2R,3S,4R,5R)-1-hexyl-3,4-dihydroxy-5-(hydroxymethyl)pyrrolidin-2-yl)acetamide] | 1060 | >283 | > 300
CCCCCCCCCN1[C@H](CC(=O)NC)[C@H](O)[C@H](O)[C@H]1CO [Compound A011, 2-((2R,3S,4R,5R)-3,4-dihydroxy-5-(hydroxymethyl)-1-nonylpyrrolidin-2-yl)-N-methylacetamide] | 33 | >9174 | > 300
CCCNC(=O)C[C@H]1N[C@H](CO)[C@@H](O)[C@H]1O [Compound A004, 2-((2R,3S,4R,5R)-3,4-dihydroxy-5-(hydroxymethyl)pyrrolidin-2-yl)-N-propylacetamide] | 537 | >555 | > 300
CCCCCCN1[C@H](CC(=O)NC)[C@H](O)[C@H](O)[C@@H]1CO [Compound A036, 2-((2R,3S,4R,5S)-1-hexyl-3,4-dihydroxy-5-(hydroxymethyl)pyrrolidin-2-yl)-N-methylacetamide] | 136000 | 0.54 | 73
O=C(C[C@H]1N[C@H](CO)[C@@H](O)[C@H]1O)NC1CC1 [Compound A048, N-cyclopropyl-2-((2R,3S,4R,5R)-3,4-dihydroxy-5-(hydroxymethyl)pyrrolidin-2-yl)acetamide] | 23800 | >12.6 | > 300
CNC(=O)C[C@@H]1[C@H](O)[C@H](O)[C@@H](CO)N1CCCNS(=O)(=O)c1ccc(-c2ccccc2)cc1 [Compound A072, 2-((2R,3S,4R,5R)-1-(3-([1,1′-biphenyl]-4-ylsulfonamido)propyl)-3,4-dihydroxy-5-(hydroxymethyl)pyrrolidin-2-yl)-N-methylacetamide] | 2 | >150000 | > 300
CC(C)CNC(=O)C[C@@H]1[C@H](O)[C@H](O)[C@@H](CO)N1CCCc1ccccc1 [Compound A026, 2-((2R,3S,4R,5R)-3,4-dihydroxy-5-(hydroxymethyl)-1-(3-phenylpropyl)pyrrolidin-2-yl)-N-isobutylacetamide] | 4390 | >68.34 | > 300
CCNC(=O)C[C@@H]1N[C@H](CO)[C@@H](O)[C@@H]1O [Compound A051, 2-((2S,3R,4R,5R)-3,4-dihydroxy-5-(hydroxymethyl)pyrrolidin-2-yl)-N-ethylacetamide] | 28800 | >10.43 | > 300
